# Experimental data: patent US20170157228A1, “Immunogenic Polypeptide Composed of HLA-B7 Restricted Tumor Antigen-Derived Optimized Cryptic Peptides, and Uses Thereof” (VAXON BIOTECH, priority 2014, published 2017)
# “Also recorded” adds a separate entry of the source.
# How the values were obtained:
# [1] = system: HLA-B*0702 transgenic mice; assay: CTL induction in vivo in HLA-B*0702 transgenic mice, ex vivo IFNγ ELISpot of spleen T cells; details: for result versus the inverted dipeptide sequence, in terms of number of responding mice: dipeptide vaccination twice at 2 weeks interval, response against optimized and cognate native peptides; for mice responding to at least one native peptide / recognition of each native peptide in vaccinated mice: after two vaccinations with the polypeptide
# Experimental: Transgenic Mice. The HLA-B7 H-2 class-I knockout mice were previously described (Rohrlich et al, 2003) and kindly provided by F. Lemonnier (Institut Pasteur, Paris, France).
# CTL Induction in vivo in HLA-B*0702 Transgenic Mice. HLA-B*0702 transgenic mice were vaccinated subcutaneously at the base of the tail with 200 μg of optimized dipeptides or 400 μg of Vbx-016 in association with the HV core T13L helper (150 μg) helper peptide and emulsified in Incomplete Freund Adjuvant (IFA) or Montanide ISA51VG (Seppic, Castres, France) twice at two weeks interval.
# Seven days after the last vaccination, spleens were removed and T cells were isolated by Ficoll centrifugation and tested ex vivo for the recognition of 10 μM of either the native or optimized peptides. Positive control was Concanavalin A and negative control was medium alone. All conditions were tested in quadriplicates. IFNγ producing T cells was quantified by ELISpot using the Diaclone Kit Murine IFNγ ELISpot.
# An immune response was considered positive when there was 1) more than 10 spots difference/10^6 cells between the negative control and the tested peptide and 2) a statistically significant difference between these two groups with T Test (p<0.05).
# Each dipeptide was used to vaccinate HLA-B*0702 transgenic mice twice at 2 weeks interval and tested for its capacity to induce an immune response against both optimized peptides and their cognate native counterparts. Dipeptides are described in table 2. In each experiment, the best combination is highlighted in grey.
# To evaluate if the Vbx-016 (SEQ ID No: 23) determined in the dipeptidic experiments is optimum, HLA-B*0702 transgenic mice were vaccinated subcutaneously at the base of the tail with 400 μg of Vbx-016 and 150 μg of the HBV core T13L helper peptide emulsified in Incomplete Freund Adjuvant (IFA) or Montanide ISA51VG (Seppic, Castres, France) twice at two weeks interval.
# [2] = system: human PBMC from healthy HLA-B*0702 donors; assay: Generation of CTL from human PBMC, IFNγ ELISpot with peptide-loaded T2-B7 cells; assay type: cell-based; details: for processing of the dipeptide and recognition of optimized and cognate native peptides by induced CTLs: PBMC culture from healthy human donor stimulated with dipeptide; for CTL immune response induced by the polypeptide: PBMC culture from HLA-B*0702 healthy donor
# Experimental: Cells. HLA-B*0702 transfected human T2-B7 cells were previously described (Rohrlich et al, 2003). Cells were grown in penicillin streptomycin FCS 20% supplemented RPMI1640 culture medium.
# Generation of CTL from human PBMC. PBMC were collected by leukapheresis from healthy HLA-B*0702 volunteers. Dendritic cells (DC) were produced from adherent cells cultured for seven days with 500 IU/ml GM-CSF and 500 IU/ml IL-4, in complete synthetic medium (AIMV). On day 6, DCs were pulsed with 10 μM of polypeptides overnight. On day 7, CD8+ cells were purified by negative selection with CD8 Dynabeads Untouched Human CD8. CD8+ cells (2×10^5)+CD8− cells (6×10^4) were stimulated with 3×10^4 peptide-pulsed DC in AIMV medium supplemented with 1000 IU/ml IL-6 and 5 IU/ml IL-12, 1 μg/ml anti-CD40 and 500 IU/ml IFNγ in round-bottomed 96-well plates.
# From day 7, cultures were restimulated weekly with peptide-loaded DC in the presence of 20 IU/ml IL-2 and 10 ng/ml IL-7, 1 μg/ml anti-CD40 and 500 IU/ml IFNγ.
# After the third restimulation, CD8 cells were maintained in AIMV supplemented with 20 IU/ml IL-2 during 7 days. Cultures were starved during one night with AIMV and then were tested in an IFNγ ELISpot assay.
# IFNγ ELISpot Assay. For one culture of 96 wells, four pools of 24 wells were collected, CD8 cells were counted and 50 000 CD8 per well were dispatched on the ELISpot plate with 25 000 T2B7 loaded eiher with 10 μM of each native monopeptide or with 10 μM of modified monopeptides composing the polypeptide. Eight replicates of each condition were performed. Positive control was Phytohaemagglutinin A and negative control was T2B7 loaded with an irrelevant peptide not able to bind HLA-B7 molecules.
# To evaluate if the junction present in the polypeptide CEA188L9/TERT444A1/MAGE273L9/HER-2/neu246A1 validated in transgenic mice are processed efficiently in humans, human PBMC were stimulated with each dipeptide (CEA188L9/TERT444A1, TERT444A1/MAGE273L9 and MAGE273L9/HER-2/neu246A1) according to the protocol described in the methods. Recognition of the cognate native peptides was evaluated by measuring specific IFNγ producing cells from the CD8+ stimulated by the dipeptide, divided in 4 pools for the test.
# [3] = system: MAGE-A antigens / tumour cells; details: recognition of cells loaded with MAGE-A273A6, MAGE-A273I6, MAGE-A273V6; cited from earlier work
sequence,measurement,setting,value
APRRLVQLLAPKHSDCLA (7T5HN3M),"result versus the inverted dipeptide sequence, in terms of number of responding mice",[1],better results than the corresponding inverted sequences; also recorded: better results than the inverted sequence
APRRLVQLLGPRALVETL (7T5M1M),"result versus the inverted dipeptide sequence, in terms of number of responding mice",[1],better results than the corresponding inverted sequences; also recorded: better results than the inverted sequence
same,processing of the dipeptide and recognition of optimized and cognate native peptides by induced CTLs,[2],efficiently processed in vitro in humans
GPRALVETL (7M1M),MAGE-A antigens targeted by elicited CTLs,[3],"targeted six MAGE-A antigens (-A1, -A2, -A3, -A4, -A6, and -A12)"
GPRALVETLAPKHSDCLA (7M1HN3M),"result versus the inverted dipeptide sequence, in terms of number of responding mice",[1],better results than the corresponding inverted sequences; also recorded: better results than the inverted sequence
same,processing of the dipeptide and recognition of optimized and cognate native peptides by induced CTLs,[2],efficiently processed in vitro in humans
GPRALVETLSPRLQLSNL (7M1C1M),"result versus the inverted dipeptide sequence, in terms of number of responding mice",[1],the same results
SPRLQLSNLAPKHSDCLA (7C1HN3M),"result versus the inverted dipeptide sequence, in terms of number of responding mice",[1],better results than the corresponding inverted sequences; also recorded: better results than the inverted sequence
SPRLQLSNLAPRRLVQLL (7C1T5M),"result versus the inverted dipeptide sequence, in terms of number of responding mice",[1],better results than the corresponding inverted sequences; also recorded: better results than the inverted sequence
same,processing of the dipeptide and recognition of optimized and cognate native peptides by induced CTLs,[2],efficiently processed in vitro in humans
"SPRLQLSNLAPRRLVQLLGPRALVETLAPKHSDCLA [Vbx-016, polypeptide of four optimized cryptic peptides targeting TERT, HER-2/neu, MAGE and CEA for HLA-B7 patients]",mice responding to at least one native peptide,[1],all mice respond to at least one native peptide
same,recognition of each native peptide in vaccinated mice,[1],each native peptide was recognized at least once in one vaccinated mouse
same,mice responding to at least one native peptide,[1]; listed as SEQ ID No: 23,all mice responded to at least one native peptide
same,recognition of each native peptide in vaccinated mice,[1]; listed as SEQ ID No: 23,all the native peptides were recognized at least once in one vaccinated mouse
same,Number of responding mice/total number of mice,"[1]; recognition of CEA188, Helper + adjuvant (IFA or montanide), pooled",13/14
same,Number of responding mice/total number of mice,"[1]; recognition of CEA188, Vbx016 + helper + IFA, two vaccinations, T-test <0.05",8/9
same,Number of responding mice/total number of mice,"[1]; recognition of CEA188, Vbx016 + helper + Montanide, two vaccinations, T-test <0.05",5/5
same,Number of responding mice/total number of mice,"[1]; recognition of CEA188L9, Helper + adjuvant (IFA or montanide), pooled",13/14
same,Number of responding mice/total number of mice,"[1]; recognition of CEA188L9, Vbx016 + helper + IFA",8/9
same,Number of responding mice/total number of mice,"[1]; recognition of CEA188L9, Vbx016 + helper + Montanide",5/5
same,Number of responding mice/total number of mice,"[1]; recognition of HER-2Neu246, Helper + adjuvant (IFA or montanide), pooled",1/14
same,Number of responding mice/total number of mice,"[1]; recognition of HER-2Neu246, Vbx016 + helper + IFA",1/9
same,Number of responding mice/total number of mice,"[1]; recognition of HER-2Neu246, Vbx016 + helper + Montanide",0/5
same,Number of responding mice/total number of mice,"[1]; recognition of HER-2Neu246A1, Helper + adjuvant (IFA or montanide), pooled",2/14
same,Number of responding mice/total number of mice,"[1]; recognition of HER-2Neu246A1, Vbx016 + helper + IFA",2/9
same,Number of responding mice/total number of mice,"[1]; recognition of HER-2Neu246A1, Vbx016 + helper + Montanide",0/5
same,Number of responding mice/total number of mice,"[1]; recognition of MageA273A6, Helper + adjuvant (IFA or montanide), pooled",2/14
same,Number of responding mice/total number of mice,"[1]; recognition of MageA273A6, Vbx016 + helper + IFA",2/9
same,Number of responding mice/total number of mice,"[1]; recognition of MageA273A6, Vbx016 + helper + Montanide",0/5
same,Number of responding mice/total number of mice,"[1]; recognition of MageA273I6, Helper + adjuvant (IFA or montanide), pooled",3/14
same,Number of responding mice/total number of mice,"[1]; recognition of MageA273I6, Vbx016 + helper + IFA",1/9
same,Number of responding mice/total number of mice,"[1]; recognition of MageA273I6, Vbx016 + helper + Montanide",2/5
same,Number of responding mice/total number of mice,"[1]; recognition of MageA273L9, Helper + adjuvant (IFA or montanide), pooled",12/14
same,Number of responding mice/total number of mice,"[1]; recognition of MageA273L9, Vbx016 + helper + IFA",7/9
same,Number of responding mice/total number of mice,"[1]; recognition of MageA273L9, Vbx016 + helper + Montanide",5/5
same,Number of responding mice/total number of mice,"[1]; recognition of MageA273V6, Helper + adjuvant (IFA or montanide), pooled",2/14
same,Number of responding mice/total number of mice,"[1]; recognition of MageA273V6, Vbx016 + helper + IFA",1/9
same,Number of responding mice/total number of mice,"[1]; recognition of MageA273V6, Vbx016 + helper + Montanide",1/5
same,Number of responding mice/total number of mice,"[1]; recognition of Tert444, Helper + adjuvant (IFA or montanide), pooled",12/14
same,Number of responding mice/total number of mice,"[1]; recognition of Tert444, Vbx016 + helper + IFA",8/9
same,Number of responding mice/total number of mice,"[1]; recognition of Tert444, Vbx016 + helper + Montanide",4/5
same,Number of responding mice/total number of mice,"[1]; recognition of Tert444A1, Helper + adjuvant (IFA or montanide), pooled",14/14
same,Number of responding mice/total number of mice,"[1]; recognition of Tert444A1, Vbx016 + helper + IFA",9/9
same,Number of responding mice/total number of mice,"[1]; recognition of Tert444A1, Vbx016 + helper + Montanide",5/5
same,Number of responding mice/total number of mice,"[1]; recognition of Vbx-016, Helper + adjuvant (IFA or montanide), pooled",14/14
same,Number of responding mice/total number of mice,"[1]; recognition of Vbx-016, Vbx016 + helper + IFA",9/9
same,Number of responding mice/total number of mice,"[1]; recognition of Vbx-016, Vbx016 + helper + Montanide",4/4
same,Number of responding mice/total number of mice,"[1]; response to two or more native epitopes, Helper + adjuvant (IFA or montanide), pooled, listed as SEQ ID No: 23",a large majority of vaccinated mice responded to two or more cognate native peptides
same,Number of responding mice/total number of mice,"[1]; response to two or more native epitopes, Vbx016 + helper + IFA",8/9
same,Number of responding mice/total number of mice,"[1]; response to two or more native epitopes, Vbx016 + helper + Montanide",5/5
same,Number of responding mice/total number of mice,"[1]; response to two or more native epitopes, column Helper + adjuvant (IFA or montanide), pooled",13/14
same,Number of responding mice/total number of mice,"[1]; response to two or more native epitopes, column Helper + adjuvant (IFA or montanide), pooled, listed as Vbx016",13/14
same,CTL immune response induced by the polypeptide,[2],A polyspecific response was induced and several native peptides were recognized by the induced CTLs
same,CTL immune response induced by the polypeptide,[2]; listed as SEQ ID No: 23,polyspecific CTLs immune response; also recorded: several native peptides were recognized; also recorded: induces a specific CD8^+ T cells response against at least one and usually two or more peptides
SPRLQLSNLGPRALVETL (7C1M1M),"result versus the inverted dipeptide sequence, in terms of number of responding mice",[1],the same results
